Patent publication US10023579B2, “Pyrrolopyrimidine compounds, use as inhibitors of the kinase LRRK2, and methods for preparation thereof” (Southern Research Institute, priority 2015, dated 2018)

Columns and labels:
[1] = target: T1, WT-LRRK2 (recombinant GST-LRRK2 delta970) (Homo sapiens, UniProt Q5S007); assay: LRRK2 kinase assay, wild type (32P radiometric, peptide substrate); assay type: biochemical; details: WT-LRRK2 30 nM, ATP ~92 μM (Km), 30 min at 30° C.
T1 construct: Recombinant GST-LRRK2 (delta970); GST (N); host or cells: baculovirus-infected Sf9 insect cells
Procedure: (§1) Compounds were assessed for inhibition of LRRK2 inhibition using the following procedure. Recombinant GST-LRRK2 (delta970) purified from baculovirus infected insect cells (SF9), at least 90% pure and either wild-type sequence or bearing the pathogenic G2019S mutation, was combined into a kinase buffer at 30 nM concentration. Kinase buffer consists of 50 mM Tris HCl pH 7.4, 1 mM EDTA, and 50 μM peptide substrate (amino acid sequence […]). Experimental compounds or control (no compound) were added at desired concentrations in DMSO and water, where final concentration of DMSO in kinase reactions was 0.1% for all drug concentrations. […] Reactions were incubated at 1400 RPM at 30° C. for 30 min. and then spotted in triplicate directly onto a slot-blot apparatus fitted with phospho-cellulose paper and allowed to dry. Each slot was then washed with 10 mM phosphoric acid buffer until beta-radiation could not be detected in eluted wash buffer, usually ˜1 mL per slot. Paper within each slot were excised and radiation measured by liquid scintillation.

[2] = target: T2, G2019S-LRRK2 (recombinant GST-LRRK2 delta970) (Homo sapiens, UniProt Q5S007, G2019S); assay: LRRK2 kinase assay, G2019S mutant (32P radiometric, peptide substrate); assay type: biochemical; details: G2019S-LRRK2 30 nM, ATP ~52 μM (Km), 30 min at 30° C.
T2 construct: Recombinant GST-LRRK2 (delta970); GST (N); host or cells: baculovirus-infected Sf9 insect cells
Procedure: as §1

T2 sequence (Q5S007 970-2527 G2019S limits assumed): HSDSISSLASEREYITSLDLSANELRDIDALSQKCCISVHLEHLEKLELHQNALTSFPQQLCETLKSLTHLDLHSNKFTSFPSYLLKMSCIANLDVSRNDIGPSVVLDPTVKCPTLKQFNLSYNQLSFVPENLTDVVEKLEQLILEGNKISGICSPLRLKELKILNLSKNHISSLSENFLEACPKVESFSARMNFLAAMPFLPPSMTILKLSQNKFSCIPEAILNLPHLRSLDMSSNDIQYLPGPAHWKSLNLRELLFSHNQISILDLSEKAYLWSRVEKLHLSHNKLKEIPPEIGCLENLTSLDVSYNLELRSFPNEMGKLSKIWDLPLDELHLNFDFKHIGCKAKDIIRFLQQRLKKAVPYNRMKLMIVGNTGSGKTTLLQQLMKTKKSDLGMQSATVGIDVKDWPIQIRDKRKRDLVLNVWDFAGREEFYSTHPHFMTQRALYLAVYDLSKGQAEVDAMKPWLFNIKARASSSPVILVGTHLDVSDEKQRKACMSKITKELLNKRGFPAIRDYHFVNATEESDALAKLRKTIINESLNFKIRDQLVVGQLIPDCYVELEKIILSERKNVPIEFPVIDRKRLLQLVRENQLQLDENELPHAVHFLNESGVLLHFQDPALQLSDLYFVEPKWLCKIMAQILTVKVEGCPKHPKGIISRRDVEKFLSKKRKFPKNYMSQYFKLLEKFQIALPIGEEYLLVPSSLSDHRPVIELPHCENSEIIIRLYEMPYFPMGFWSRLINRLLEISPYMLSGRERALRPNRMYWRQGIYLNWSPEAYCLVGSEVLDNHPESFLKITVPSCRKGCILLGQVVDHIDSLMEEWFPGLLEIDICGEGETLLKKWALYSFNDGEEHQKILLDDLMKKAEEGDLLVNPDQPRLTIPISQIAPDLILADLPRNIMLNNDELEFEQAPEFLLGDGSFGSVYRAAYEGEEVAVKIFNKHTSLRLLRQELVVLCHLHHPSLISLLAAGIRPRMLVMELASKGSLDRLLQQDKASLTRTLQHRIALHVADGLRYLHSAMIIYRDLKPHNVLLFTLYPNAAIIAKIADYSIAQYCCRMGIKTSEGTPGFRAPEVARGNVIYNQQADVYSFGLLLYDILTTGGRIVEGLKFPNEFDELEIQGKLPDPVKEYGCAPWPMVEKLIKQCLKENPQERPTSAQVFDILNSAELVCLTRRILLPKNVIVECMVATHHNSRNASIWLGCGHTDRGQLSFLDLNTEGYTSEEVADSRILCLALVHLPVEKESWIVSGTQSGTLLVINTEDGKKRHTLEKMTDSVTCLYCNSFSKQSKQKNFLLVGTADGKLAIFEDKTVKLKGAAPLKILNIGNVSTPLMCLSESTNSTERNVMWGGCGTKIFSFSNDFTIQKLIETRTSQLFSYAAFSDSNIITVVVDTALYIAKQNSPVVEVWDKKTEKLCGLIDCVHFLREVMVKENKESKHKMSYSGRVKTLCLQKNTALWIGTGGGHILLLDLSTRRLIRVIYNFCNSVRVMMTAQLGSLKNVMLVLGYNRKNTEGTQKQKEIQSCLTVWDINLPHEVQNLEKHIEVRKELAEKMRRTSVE
T1 sequence (Q5S007 970-2527 limits assumed): as the sequence (Q5S007 970-2527 G2019S limits assumed) above, with S1050G counted along it

C[C@H](Nc1nc(Nc2cnn(CCN(C)C)c2)nc2[nH]ccc12)C1CC1 [Compound 41, (S)-N4-(1-cyclopropylethyl)-N2-(1-(2-(dimethylamino)ethyl)-1H-pyrazol-4-yl)-7H-pyrrolo[2,3-d]pyrimidine-2,4-diamine] gave an IC50 [1] of 0.05 µM and an IC50 [2] of 0.065 µM.
